Article PMC7869652 (Invertebrate neuroscience : IN, 2019)
Where two headings read alike, the source gives them in different places.

Experiments:
Format in all cases: cell-based
[1] = biological target: T1, Aca-ACR-16 (Ancylostoma caninum, UniProt A0A5C1L5J1); test: two-electrode voltage clamp, Xenopus oocytes, inhibition of ACh current; conditions: read-out: % inhibition at 10 μM
T1 sequence (A0A5C1L5J1 21-497): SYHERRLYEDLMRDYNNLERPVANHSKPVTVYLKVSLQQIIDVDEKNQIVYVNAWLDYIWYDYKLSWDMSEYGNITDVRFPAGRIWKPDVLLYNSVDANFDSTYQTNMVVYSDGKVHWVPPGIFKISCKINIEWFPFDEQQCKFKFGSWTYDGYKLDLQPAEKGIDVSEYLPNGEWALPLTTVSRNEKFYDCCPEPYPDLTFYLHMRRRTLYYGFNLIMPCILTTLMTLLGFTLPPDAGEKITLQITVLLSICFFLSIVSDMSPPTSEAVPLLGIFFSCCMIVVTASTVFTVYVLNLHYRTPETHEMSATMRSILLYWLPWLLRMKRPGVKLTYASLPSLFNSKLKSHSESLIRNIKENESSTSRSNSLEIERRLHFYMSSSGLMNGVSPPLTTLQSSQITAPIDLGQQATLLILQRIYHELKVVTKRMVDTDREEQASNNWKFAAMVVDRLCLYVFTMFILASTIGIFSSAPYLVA

[2] = biological target: T1, Aca-ACR-16; test: as above; conditions: read-out: % inhibition at 10 μM; remark: listed apart in the source
[3] = biological target: T1, Aca-ACR-16; test: two-electrode voltage clamp, Xenopus oocytes, peak current; conditions: agonist; 10 s application; co-expressed with Asu-RIC-3
[4] = biological target: T1, Aca-ACR-16; test: as above

Row | SMILES | inhibition at 10 µM [1] [%] | also measured
1 | COc1cc2c3cc1Oc1cc(ccc1O)C[C@@H]1c4c(cc(OC)c(O)c4Oc4ccc(cc4)C[C@@H]3N(C)CC2)CC[N+]1(C)C [d-tubocurarine] | 100 ± 0.1 | –
2 | CO[C@H]1CC=C2CCN3CCC4=C(CC(=O)OC4)[C@]23C1 [dihydro-β-erythroidine] | – | inhibition at 10 µM [2]: 98.8 ± 0.4%
3 | Clc1ccc(C2CC3CCC2N3)cn1 (stereo not drawn) [epibatidine] | – | % of 100 μM ACh current at 100 μM [3]: 85.0 ± 4.0%
4 | CNC1(C)C2CCC(C2)C1(C)C (stereo not drawn) [mecamylamine] | 98.8 ± 0.6 | –
5 | CN1C(=O)[C@]23C[C@H]4C(C)(C)[C@]5(CNc6c5ccc5c6OC=CC(C)(C)O5)C[C@@]41CN2CC[C@@]3(C)O [derquantel] | 72 ± 5.6 | –
6 | CC(=O)OCC[N+](C)(C)C [acetylcholine] | – | EC50 [4]: 50 µM
